Test results taken from patent US6057348A (Oregon State University, priority 1998, dated 2000).
Entries after “also recorded” stand apart in the source; their conditions may differ.

Experiments:
antimitotic activity = assay: Biological activity of isolated curacins; conditions: various tests
tubulin [1] = assay: Inhibition of tubulin polymerization (turbidimetric, 350 nm); format: biochemical, bovine; conditions: 1.0 mg/mL tubulin, 0.8 M glutamate, 30°, 20 minutes; ± SD
Method: (§1) Electrophoretically homogeneous bovine brain tubulin was prepared as described previously (20). Nonradiolabeled colchicine was obtained from Sigma and [^3 H]colchicine from Dupont-NEN. Stock 2.0 M solutions of monosodium glutamate were adjusted to pH 6.6 with HCl. MCF-7 breast cancer cells were obtained from Dr. D. Scudiero, National Cancer Institute. Curacin A is referred to in the tables provided below, and was obtained as stated in Gerwick's U.S. Pat. No. 5,324,739. All data presented for curacin A represent averages obtained in contemporaneous experiments with natural and synthetic drug. All drugs were dissolved in dimethyl sulfoxide, and control reaction mixtures contained an equivalent amount of the solvent.
Tubulin polymerization was followed turbidimetrically at 350 nm in Gilford model 250 spectrophotometers equipped with electronic temperature controllers. All concentrations refer to the final reaction volume of 0.25 mL, although the preincubation was performed in 0.24 mL, followed by addition of 10 μL of 10 mM GTP. Reaction mixtures contained 1.0 mg/mL tubulin, 0.8 M monosodium glutamate, 4% dimethyl sulfoxide and varying drug concentrations. Samples were preincubated for 15 minutes at 30° and chilled on ice. GTP was added to each reaction mixture, and these were placed in cuvettes held at 0°. Baselines were established, the temperature was raised to 30° (at a rate of about 0.5°/sec), and polymerization was followed for 20 minutes. IC50 values were determined by graphical interpolation of experimental points, with drug-containing samples compared to control reaction mixtures containing dimethyl sulfoxide but no drug. At least three independent IC50 values were obtained with each compound.
(§2) The R1 -R3 substituents referred to in Table 1 are with reference to Formula 11, which, for convenience, is reproduced above Table 1. [drawing 13]

tubulin [2] = assay: Inhibition of [3H]colchicine binding to tubulin (DEAE-cellulose filter method); design: species or system bovine; conditions: 5.0 μM [3H]colchicine, 1.0 μM tubulin; for Inhibition of Colchicine Binding % Inhibition ± SD: inhibitor 5.0 μM; for Inhibition of Colchicine Binding % Inhibition ± SD (values in parentheses): inhibitor 50 μM
Method: as §1
The binding of [^3 H]colchicine to tubulin was measured by the DEAE-cellulose filter method as described by Kang et al., "N-acetylcolchinol O-methyl Ether and Thiocolchicine, Potent Analogs of Colchicine Modified in the C Ring: Evaluation of the Mechanistic Basis for Their Enhanced Biological Properties," J. Biol. Chem. 265:10255-1-259 (1990). Reaction mixtures contained 1.0 μM (0.1 mg/mL) tubulin, 1.0 M monosodium glutamate, 0.1 M glucose-1-phosphate, 1.0 mM MgCl2, 1.0 mM GTP, 0.5 mg/mL bovine serum albumin, 5% (v/v) dimethyl sulfoxide, 5.0 μM [^3 H]colchicine and inhibitor at either 5.0 or 50 μM as indicated. These reaction conditions were used because they strongly stabilize the colchicine binding activity of tubulin. The values presented represent averages of three experiments, each with duplicate samples.
as §2

MCF-7 cells = assay: Inhibition of MCF-7 breast cancer cell growth (sulforhodamine B); format: cell-based; conditions: Homo sapiens, MCF7; 48 hours drug exposure; ± SD
Method: as §1
IC50 values for inhibition of cell growth were obtained by measuring the amount of total cell protein with the sulforhodamine B assay as described by Skehan et al., "New Colorimetric Cytotoxicity Assay for Anticancer-drug Screening," J. Natl. Cancer Inst., 82:1107-1112 (1990). MCF-7 cells were grown in RPMI 1640 medium containing 17% fetal calf serum, 12 μg/mL gentamicin sulfate and 2 mM glutamine at 37° in 5% CO2. Confluent cells were trypsinized, diluted 40-fold, and seeded into 96-well microtiter plates. After 24 hours of growth without drug, medium with varying concentrations of drug was added to different wells (final concentration of dimethyl sulfoxide, 0.1%). […] The values presented are averages from at least two independent experiments.
as §2

[3] = system: 60 different human tumor cell lines; assay: NCI 60-cell line screen / mode of action of curazole; format: cell-based; conditions: COMPARE mean-graph profiles / 60-cell line assay
Method: In these examples, curazole was subjected to the drug screening procedure employed by the National Cancer Institute for the screening of drugs having possible anticancer utility. The screening procedure employed a diverse, disease-oriented panel consisting of 60 different human tumor cell lines organized into seven disease-specific subpanels. Curazole was tested over a wide range of concentrations for cytotoxic or growth-inhibitory effects against each cell line comprising the panel. The seven subpanels represented diverse histologies (leukemias, melanomas, and tumors of the lung, colon, kidney, ovary, and brain).
Curazole was tested over a period of several days. During this period the cells were continuously exposed to five log10 -spaced concentrations of the drug starting at about 10^-4 μg/mL. The tests produced 60 individual dose-response curves, one for each cell line (i.e., one for each example).
To produce data for the mean-graph format shown in FIG. 2, a concentration of the extract that produced a target level response was calculated for each cell line. Three different response parameters were evaluated. […] The second response parameter was the total growth inhibition ("TGI"), which is the concentration at which the number of tumor cells remaining at the end of the incubation period substantially equaled the number of tumor cells existing at the start of the incubation period. […]

cell growth and mitosis = conditions: background; cited from earlier work
[4] = system: colchicine site of tubulin; conditions: background; cited from earlier work
microtubule assembly = conditions: background; cited from earlier work
tubulin [5] = conditions: background; cited from earlier work
β-tubulin = conditions: background; cited from earlier work
microtubule ends = conditions: low concentrations; background; cited from earlier work
brine shrimp = conditions: Example 1 of U.S. Pat. No. 5,324,739; cited from earlier work
[6] = stored neat; cited from earlier work
[7] = Chemical stability on storage neat

Structure (SMILES) | biological activity, particularly antimitotic activity (antimitotic activity) | IC50 (tubulin [1]) | Inhibition of Colchicine Binding % Inhibition ± SD (tubulin [2]) | IC50 (MCF-7 cells) | also measured
C=CC[C@@H](CC/C(C)=C/C=C\CC/C=C\[C@@H]1CSC([C@@H]2C[C@@H]2C)=N1)OC [Curacin B] | substantial biological activity, particularly antimitotic activity |  |  |  | 
CCC[C@@H](CC/C(C)=C/C=C/CC/C=C\[C@@H]1CSC([C@@H]2C[C@@H]2C)=N1)OC [C15,16-dihydro] |  | 1200 ± 200 nM | 85 ± 7% | 46 nM | 
C=CC[C@H](O)CC/C(C)=C/C=C/CC/C=C\[C@@H]1CSC([C@@H]2C[C@@H]2C)=N1 [C13 Hydroxyl] |  | 870 ± 90 nM | 82 ± 7% | 450 ± 20 nM | 
C=CC[C@@H](CC/C(C)=C\C=C\CC/C=C\[C@@H]1CSC([C@@H]2C[C@@H]2C)=N1)OC [Curacin C] | substantial biological activity, particularly antimitotic activity |  |  |  | 
C=CC[C@H](O)CC/C(C)=C/C=C/CC/C=C\[C@@H]1CSC([C@H]2C[C@@H]2C)=N1 [C13 Hydroxyl, Epi C19] |  | 730 ± 100 nM | 71 ± 5% | 610 ± 200 nM | 
C=CC[C@@H](CC/C(C)=C/C=C/CC/C=C\c1csc([C@@H]2C[C@@H]2C)n1)OC [Curazole, [13R,19R,21S]-1,2-didehydrocuracin A] |  | 740 ± 10 nM | 74 ± 11% | 300 ± 70 nM | mode of action [3]: functions as an antimitotic and has a mode of action similar to a number of conventional antineoplastics
C=CCC1(CC/C(C)=C/C=C/CC/C=C\[C@@H]2CSC([C@@H]3C[C@@H]3C)=N2)OCCO1 [C13 Ethylene-dioxy] |  | 780 ± 300 nM | 92 ± 1% | 30 ± 10 nM | 
C=CC[C@@H](CC/C=C/C=C/CC/C=C\[C@@H]1CSC([C@@H]2C[C@@H]2C)=N1)OC [Curacin D] | substantial biological activity, particularly antimitotic activity |  | 53 ± 10% | 340 ± 100 nM | 
C=CCCc1nc(/C=C\CC/C=C/C=C(\C)CC[C@H](CC=C)OC)cs1 [1-butene derivative] |  | 920 ± 200 nM | 83 ± 6% | 300 ± 200 nM | 
C=CC[C@@H](CC/C(C)=C/C=C/CC/C=C\[C@@H]1CSC([C@@H]2C[C@@H]2C)=N1)OC [Curacin A] | substantial biological activity, particularly antimitotic activity | 720 ± 200 nM | 94 ± 2% | 38 ± 10 nM | inhibition of cell growth and mitosis (cell growth and mitosis): potent inhibitor of cell growth and mitosis; binding at colchicine site of tubulin [4]: binding rapidly and dissociating slowly from tubulin; also recorded: binding rapidly and tightly at the colchicine site of tubulin; inhibition of the binding of colchicine to tubulin [4]: potent competitive inhibitor of the binding of colchicine to tubulin; inhibition of microtubule assembly (microtubule assembly): inhibits microtubule assembly; uncoupled GTPase reaction (tubulin [5]): stimulated the uncoupled GTPase reaction; formation of the cys239-cys354 cross link (β-tubulin): inhibits formation of the cys239-cys354 cross link; tubulin turnover at microtubule ends (microtubule ends): increase tubulin turnover at microtubule ends; effectiveness for reducing a population of arthropods (brine shrimp) (brine shrimp): effectiveness; chemical stability [6]: limited chemical stability; stability ([7]; particularly when stored neat): limited stability; biological activity after storage neat ([7]; stored neat versus stored under a solvent): less biological activity than curacin A stored under a solvent
CCC[C@@H](CC/C(C)=C/C=C/CCCC[C@@H]1CSC([C@@H]2C[C@@H]2C)=N1)OC [C3,4,15,16 Tetrahydro, 3,4,15,16-tetrahydrocuracin A] |  | 4600 ± 1000 nM | 1 ± 1% | 3300 ± 2000 nM | Inhibition of Colchicine Binding % Inhibition ± SD (values in parentheses) (tubulin [2]): 28 ± 6%
C=CC[C@@H](CC/C(C)=C/C=C/CC/C=C\[C@@H]1CSC([C@@H]2C[C@@H]2C)=N1)OCOC [C13 Methyl-methoxy] |  | 640 ± 200 nM | 81 ± 6% | 220 nM | 
C=CC[C@@H](CC/C(C)=C/C=C/CC/C=C\[C@@H]1CSC([C@H]2C[C@@H]2C)=N1)OCOC [C13 Methyl-methoxy, Epi C19] |  | 3200 ± 300 nM | 16 ± 3% | 3100 ± 2000 nM | Inhibition of Colchicine Binding % Inhibition ± SD (values in parentheses) (tubulin [2]): 32 ± 4%
